Target: T1, SHP2 (Homo sapiens, UniProt Q06124)
T1 sequence (Q06124 1-593): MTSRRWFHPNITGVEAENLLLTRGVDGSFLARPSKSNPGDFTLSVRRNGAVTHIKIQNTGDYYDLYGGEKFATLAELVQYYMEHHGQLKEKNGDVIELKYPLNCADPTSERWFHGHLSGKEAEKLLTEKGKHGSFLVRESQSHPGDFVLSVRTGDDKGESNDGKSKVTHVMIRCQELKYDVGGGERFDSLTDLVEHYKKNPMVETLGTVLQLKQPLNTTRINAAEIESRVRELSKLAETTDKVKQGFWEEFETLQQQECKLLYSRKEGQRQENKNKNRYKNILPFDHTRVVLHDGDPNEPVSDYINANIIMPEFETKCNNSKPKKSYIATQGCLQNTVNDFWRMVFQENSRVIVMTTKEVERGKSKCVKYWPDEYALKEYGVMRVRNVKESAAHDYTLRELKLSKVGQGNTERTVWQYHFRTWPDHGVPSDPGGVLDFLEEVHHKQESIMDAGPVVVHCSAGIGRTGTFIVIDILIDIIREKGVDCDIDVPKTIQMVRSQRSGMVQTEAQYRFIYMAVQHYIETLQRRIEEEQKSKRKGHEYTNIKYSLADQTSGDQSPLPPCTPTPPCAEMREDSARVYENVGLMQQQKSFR
Assay: SHP2 allosteric inhibitor enzyme activity assay (DiFMUP fluorescence)
Format: biochemical
Conditions: class symbols
Method in brief: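 SHP2 activated by 0.5 μM IRS1_pY1172(dPEG8)pY1222 peptide, 0.2 ng enzyme per well, 1 h at room temperature with compound (1 μM top, 3-fold series), then DiFMUP substrate 1 h. Buffer: 60 mM HEPES, 75 mM NaCl, 75 mM KCl, 0.05% BRIJ-35, 1 mM EDTA, 5 mM DTT. Fluorescence ex 340/em 450 nm; IC50 by variable-slope fit.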

| Compound | IC50 [nM] |
| --- | --- |
| CC1(C)CC1(c1ccccc1)c1n[nH]c2nc(N3CCC4(CC3)Cc3ccccc3[C@H]4N)[nH]c(=O)c12 (stereo partly drawn) [Example 5, 6-((S)-1-amino-1,3-dihydrospiro[indene-2,4′-piperidin]-1′-yl)-3-(2,2-dimethyl-1-phenylcyclopropyl)-1,5-dihydro-4H-pyrazolo[3,4-d]pyrimidin-4-one] | > 60 |
| COc1cccc(C2(c3n[nH]c4nc(N5CCC6(CC5)CO[C@@H](C)[C@H]6N)[nH]c(=O)c34)CC2)c1 [Example 305, 6-((3S,4S)-4-amino-3-methyl-2-oxa-8-azaspiro[4.5]decan-8-yl)-3-(1-(3-methoxyphenyl)cyclopropyl)-1,5-dihydro-4H-pyrazolo[3,4-d]pyrimidin-4-one] | 20 to 60 |
| Cc1cc(C(F)(F)F)c2c(n1)CCC=C2c1n[nH]c2nc(N3CCC4(CC3)Cc3ccccc3[C@H]4N)[nH]c(=O)c12 [Example 140, (S)-6-(1-amino-1,3-dihydrospiro[indene-2,4′-piperidin]-1′-yl)-3-(2-methyl-4-(trifluoromethyl)-7,8-dihydroquinolin-5-yl)-1,5-dihydro-4H-pyrazolo[3,4-d]pyrimidin-4-one] | 20 to 60 |
| C[C@@H]1OCC2(CCN(c3nc4[nH]nc(C5(c6ccc(C(F)(F)F)cc6)CC5)c4c(=O)[nH]3)CC2)[C@@H]1N [Example 296, 6-((3S,4S)-4-amino-3-methyl-2-oxa-8-azaspiro[4.5]decan-8-yl)-3-(1-(4-(trifluoromethyl)phenyl)cyclopropyl)-1,5-dihydro-4H-pyrazolo[3,4-d]pyrimidin-4-one] | > 60 |
| N[C@@H]1c2ccccc2CC12CCN(c1nc3[nH]nc(C4=CCCc5ncc(C(F)(F)F)cc54)c3c(=O)[nH]1)CC2 [Example 138, (S)-6-(1-amino-1,3-dihydrospiro[indene-2,4′-piperidin]-1′-yl)-3-(3-(trifluoromethyl)-7,8-dihydroquinolin-5-yl)-1,5-dihydro-4H-pyrazolo[3,4-d]pyrimidin-4-one] | 20 to 60 |
| CC(=O)c1cccc(C2(c3n[nH]c4nc(N5CCC6(CC5)CO[C@H](C)[C@@H]6N)[nH]c(=O)c34)CC2)c1 [Example 316, 3-(1-(3-acetylphenyl)cyclopropyl)-6-((3R,4R)-4-amino-3-methyl-2-oxa-8-azaspiro[4.5]decan-8-yl)-1,5-dihydro-4H-pyrazolo[3,4-d]pyrimidin-4-one] | 20 to 60 |
| N[C@@H]1COCC12CCN(c1nc3[nH]nc(C4(c5ccccc5)CC4)c3c(=O)[nH]1)CC2 [Example 271, (S)-6-(4-amino-2-oxa-8-azaspiro[4.5]decan-8-yl)-3-(1-phenylcyclopropyl)-1,5-dihydro-4H-pyrazolo[3,4-d]pyrimidin-4-one] | 20 to 60 |
| COc1cc(F)cc(C2(c3n[nH]c4nc(N5CCC6(CC5)CO[C@@H](C)[C@H]6N)[nH]c(=O)c34)CC2)c1 [Example 288, 6-((3S,4S)-4-amino-3-methyl-2-oxa-8-azaspiro[4.5]decan-8-yl)-3-(1-(3-fluoro-5-methoxyphenyl)cyclopropyl)-1,5-dihydro-4H-pyrazolo[3,4-d]pyrimidin-4-one] | > 60 |
| N[C@@H]1c2ccccc2CC12CCN(c1nc3[nH]nc(C4(c5ccccc5)CCOCC4)c3c(=O)[nH]1)CC2 [Example 100, (S)-6-(1-amino-1,3-dihydrospiro[indene-2,4′-piperidin]-1′-yl)-3-(4-phenyltetrahydro-2H-pyran-4-yl)-1,5-dihydro-4H-pyrazolo[3,4-d]pyrimidin-4-one] | 20 to 60 |
| C[C@@H]1OCC2(CCN(c3nc4[nH]nc(C5(c6ccc(OC(F)(F)F)cc6)CC5)c4c(=O)[nH]3)CC2)[C@@H]1N [Example 307, 6-((3S,4S)-4-amino-3-methyl-2-oxa-8-azaspiro[4.5]decan-8-yl)-3-(1-(4-(trifluoromethoxy)phenyl)cyclopropyl)-1,5-dihydro-4H-pyrazolo[3,4-d]pyrimidin-4-one] | 20 to 60 |
| N[C@@H]1c2ccccc2CC12CCN(c1nc3[nH]nc(C4(c5ccccc5C(F)(F)F)CC4)c3c(=O)[nH]1)CC2 [Example 15, (S)-6-(1-amino-1,3-dihydrospiro[indene-2,4′-piperidin]-1′-yl)-3-(1-(2-(trifluoromethyl)phenyl)cyclo-propyl)-1,5-dihydro-4H-pyrazolo[3,4-d]pyrimidin-4-one] | ≤ 20 |
| CN1CC2(C=C(c3n[nH]c4nc(N5CCC6(CC5)Cc5ccccc5[C@H]6N)[nH]c(=O)c34)c3ccccc32)C1 [Example 171, (S)-6-(1-amino-1,3-dihydrospiro[indene-2,4′-piperidin]-1′-yl)-3-(1-methylspiro[azetidine-3,1′-inden]-3′-yl)-1,5-dihydro-4H-pyrazolo[3,4-d]pyrimidin-4-one] | ≤ 20 |

The remaining lines, values ahead:

| IC50 [nM] | Compound |
| --- | --- |
| ≤ 20 | N[C@@H]1c2ccccc2CC12CCN(c1nc3[nH]nc([C@H]4C[C@H]4c4ccccc4)c3c(=O)[nH]1)CC2 [Example 105, 6-((S)-1-amino-1,3-dihydrospiro[indene-2,4′-piperidin]-1′-yl)-3-((1S,2R)-2-phenylcyclopropyl)-1,5-dihydro-4H-pyrazolo[3,4-d]pyrimidin-4-one] |
| ≤ 20 | CCOC(=O)Nc1cccc(C2(c3n[nH]c4nc(N5CCC6(CC5)Cc5ccccc5[C@H]6N)[nH]c(=O)c34)CC2)c1 [Example 41, ethyl (S)-(3-(1-(6-(1-amino-1,3-dihydrospiro[indene-2,4′-piperidin]-1′-yl)-4-oxo-4,5-dihydro-1H-pyrazolo[3,4-d]pyrimidin-3-yl)cyclopropyl)phenyl)carbamate] |
| ≤ 20 | N[C@@H]1c2ccccc2CC12CCN(c1nc3[nH]nc(C4=CCOc5cc(Cl)ccc54)c3c(=O)[nH]1)CC2 [Example 167, (S)-6-(1-amino-1,3-dihydrospiro[indene-2,4′-piperidin]-1′-yl)-3-(7-chloro-2H-chromen-4-yl)-1,5-dihydro-4H-pyrazolo[3,4-d]pyrimidin-4-one] |
| ≤ 20 | N[C@@H]1c2ccccc2CC12CCN(c1nc3[nH]nc(C4(c5ccnc(-c6ccccc6)c5)CC4)c3c(=O)[nH]1)CC2 [Example 86, (S)-6-(1-amino-1,3-dihydrospiro[indene-2,4′-piperidin]-1′-yl)-3-(1-(2-phenylpyridin-4-yl)cyclopropyl)-1,5-dihydro-4H-pyrazolo[3,4-d]pyrimidin-4-one] |
| ≤ 20 | N[C@@H]1c2ccccc2CC12CCN(c1nc3[nH]nc(C4(c5cccc(CO)c5)CC4)c3c(=O)[nH]1)CC2 [Example 226, (S)-6-(1-amino-1,3-dihydrospiro[indene-2,4′-piperidin]-1′-yl)-3-(1-(3-(hydroxymethyl)phenyl)cyclo-propyl)-1,5-dihydro-4H-pyrazolo[3,4-d]pyrimidin-4-one] |
| ≤ 20 | N[C@@H]1c2ccccc2CC12CCN(c1nc3[nH]nc(C4(c5cccc6c5CC(=O)N6)CC4)c3c(=O)[nH]1)CC2 [Example 82, (S)-6-(1-amino-1,3-dihydrospiro[indene-2,4′-piperidin]-1′-yl)-3-(1-(2-oxoindolin-4-yl)cyclopropyl)-1,5-dihydro-4H-pyrazolo[3,4-d]pyrimidin-4-one] |
| ≤ 20 | N[C@@H]1c2ccccc2CC12CCN(c1nc3[nH]nc(C4(c5ncccn5)CC4)c3c(=O)[nH]1)CC2 [Example 245, (S)-6-(1-amino-1,3-dihydrospiro[indene-2,4′-piperidin]-1′-yl)-3-(1-(pyrimidin-2-yl)cyclopropyl)-1,5-dihydro-4H-pyrazolo[3,4-d]pyrimidin-4-one] |
| ≤ 20 | N[C@@H]1c2ccccc2CC12CCN(c1nc3[nH]nc(C4(c5ccnc(NC6CC6)c5)CC4)c3c(=O)[nH]1)CC2 [Example 29, (S)-6-(1-amino-1,3-dihydrospiro[indene-2,4′-piperidin]-1′-yl)-3-(1-(2-(cyclopropylamino)pyridin-4-yl)cyclopropyl)-1,5-dihydro-4H-pyrazolo[3,4-d]pyrimidin-4-one] |
| ≤ 20 | N[C@@H]1c2ccccc2CC12CCN(c1nc3[nH]nc(C4=CS(=O)(=O)Cc5ccccc54)c3c(=O)[nH]1)CC2 [Example 182, (S)-6-(1-amino-1,3-dihydrospiro[indene-2,4′-piperidin]-1′-yl)-3-(2,2-dioxido-1H-isothiochromen-4-yl)-1,5-dihydro-4H-pyrazolo[3,4-d]pyrimidin-4-one] |
| ≤ 20 | Cn1ncc(-c2cccc(C3(c4n[nH]c5nc(N6CCC7(CC6)Cc6ccccc6[C@H]7N)[nH]c(=O)c45)CC3)c2)n1 [Example 37, (S)-6-(1-amino-1,3-dihydrospiro[indene-2,4′-piperidin]-1′-yl)-3-(1-(3-(2-methyl-2H-1,2,3-triazol-4-yl)phenyl)cyclopropyl)-1,5-dihydro-4H-pyrazolo[3,4-d]pyrimidin-4-one] |
| ≤ 20 | N[C@@H]1c2ccccc2CC12CCN(c1nc3[nH]nc(C4(c5ncco5)CC4)c3c(=O)[nH]1)CC2 [Example 243, (S)-6-(1-amino-1,3-dihydrospiro[indene-2,4′-piperidin]-1′-yl)-3-(1-(oxazol-2-yl)cyclopropyl)-1,5-dihydro-4H-pyrazolo[3,4-d]pyrimidin-4-one] |
